Experimental data taken from BigSolDB 2.1.

O=C1c2ccccc2C(=O)N1O
in acetic acid
Conditions | solubility (mole fraction)
293.2 K | 0.00298
303.2 K | 0.00394
313.2 K | 0.00504
323.2 K | 0.00658
333.2 K | 0.00816
343.2 K | 0.0103
353.2 K | 0.0127
363.2 K | 0.0155

O=c1[nH]cc(F)c(=O)[nH]1
solubility (mole fraction)
Conditions | 283.15 K | 288.15 K | 293.15 K | 298.15 K | 303.15 K | 308.15 K | 313.15 K | 318.15 K | 323.15 K
in THF | 0.000217 | 0.000286 | 0.000359 | 0.000471 | 0.000618 | 0.000763 | 0.000961 | 0.0012 | 0.00151
in water | – | – | – | 0.00248 | – | – | – | – | –

C1CCCC1
in water
Conditions | solubility (mole fraction)
276.5 K | 4.62e-05
282.2 K | 4.29e-05
296.2 K | 4.17e-05

O=C(O)c1ccccc1O
298.15 K
Conditions | solubility (mole fraction)
in 1,4-dioxane | 0.261
in ethanol | 0.145
in ethyl acetate | 0.138
in methanol | 0.122
in water | 0.0003

Conditions | solubility (mole fraction)
in PEG-300, 298.15 K | 0.493

c1ccc2c(c1)[nH]c1ccccc12
298.15 K
Conditions | solubility (mole fraction)
in 1-chlorooctane | 0.00242
in 1-chlorotetradecane | 0.0024
in chlorocyclohexane | 0.00291
in dibutyl ether | 0.00501

N[C@@H](C(=O)O)c1ccc(O)cc1
in water
Conditions | solubility (mole fraction)
293.25 K | 0.00196
298.13 K | 0.0021
303.15 K | 0.00224
308.18 K | 0.00241
313.15 K | 0.00255
318.17 K | 0.00272

COc1ccccc1OCC(O)COC(N)=O (stereo not given)
298.15 K
Conditions | solubility (mole fraction)
in 1,4-dioxane | 0.00331
in ethanol | 0.00436
in methanol | 0.00425
in propylene glycol | 0.00914
in water | 0.000735

Conditions | solubility (mole fraction)
in PEG-400, 298.15 K | 0.0262

NCCC(=O)O
in methanol
Conditions | solubility (mole fraction)
288.15 K | 0.115
293.15 K | 0.122
298.15 K | 0.131
303.15 K | 0.14
308.15 K | 0.152
313.15 K | 0.164
318.15 K | 0.173
323.15 K | 0.183

Cc1ccc(-c2cc(C(F)(F)F)nn2-c2ccc(S(N)(=O)=O)cc2)cc1
in water
Conditions | solubility (mole fraction)
293.2 K | 7.36e-08
298.2 K | 8.02e-08
303.2 K | 9.16e-08
308.2 K | 1.27e-07
313.2 K | 1.44e-07

O=c1c(-c2ccc(O)cc2)coc2c([C@@H]3O[C@H](CO)[C@@H](O)[C@H](O)[C@H]3O)c(O)ccc12
in methanol
Conditions | solubility (mole fraction)
293.15 K | 0.00714
303.15 K | 0.00787
313.15 K | 0.00858
323.15 K | 0.00932
333.15 K | 0.0102

Cc1ccccc1
Conditions | solubility (mole fraction)
in water, 295.7 K | 0.000112

Cc1ccccc1C(=O)O
in cyclohexane
Conditions | solubility (mole fraction)
295.45 K | 0.0146
304.95 K | 0.0279
316.65 K | 0.0515
319.4 K | 0.0615
325.2 K | 0.0885
329.35 K | 0.106
333.45 K | 0.138
338.15 K | 0.185

CC1=C(/C=C/C(C)=C/C=C/C(C)=C/C=C/C=C(C)/C=C/C=C(C)/C=C/C2=C(C)CCCC2(C)C)C(C)(C)CCC1
293.15 K
Conditions | solubility (mole fraction)
in 1,2-dimethoxyethane | 6.3e-05
in 1-hexene | 0.000187
in 2-butanone | 9.1e-05
in MTBE | 0.000119
in acetone | 1.4e-05
in cyclohexane | 0.000302
in cyclohexanone | 0.00032
in dibutyl ether | 0.000158
in diglyme | 9.6e-05
in n-hexane | 8.9e-05
in n-octanol | 2.79e-05
in tert-amyl methyl ether | 0.00018
in toluene | 0.00109

CC(C)C[C@H](CN)CC(=O)O
in water
Conditions | solubility (mole fraction)
283.15 K | 0.00349
298.15 K | 0.00373
308.15 K | 0.00397
315.65 K | 0.00447
323.15 K | 0.00486
328.15 K | 0.00531
338.15 K | 0.00641
